Experimental data taken from article PMC5046085, “Systemic Inhibition of CREB is Well-tolerated in vivo” (Scientific Reports, 2016).

Assays:
[1] = test system: c-Myb; parameters: method as in PMID 15585582, PMID 25740244; conditions: cited from earlier work
[2] = test system: T1, Gal4-MLL(2840–2858); assay: Gal4-MLL transcription reporter assay in HEK293T cells; assay type: cell-based, human; conditions: pG5B reporter, increasing concentrations, 5–7 h
T1 construct: human MLL (2840–2858) ([…]); expressed in transfected cells; host or cells: HEK293T
T1 sequence (P04386 with tags, fused parts or gaps): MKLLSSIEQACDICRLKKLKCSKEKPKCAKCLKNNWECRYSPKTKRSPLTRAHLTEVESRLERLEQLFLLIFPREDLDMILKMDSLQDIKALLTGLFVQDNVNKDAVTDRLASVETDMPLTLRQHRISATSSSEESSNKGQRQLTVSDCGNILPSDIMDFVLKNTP
Method: (§1) In these transcription reporter assays, HEK293T cells were transfected with Gal4-fusions along with a Gal4-responsive luciferase reporter or SRF-responsive luciferase (SRE-Luc) reporter. For Gal4-TEAD4, coactivator YAP1 was also included for transfection to enhance its transcription activity. Then the cells were treated with increasing concentrations of 666-15. […] (Fig. 2D).
(§2) Figure 2 Selectivity of 666-15 against different transcription factors. […] HEK 293T cells were transfected with Gal4-MLL/pG5B (A) Gal4-c-Myb/pG5B (B) Gal4-TEAD4/YAP1/pG5B (C) or SRE-Luc (D). Then the transfected cells were treated with increasing concentrations of 666-15 for 5–7 h. The luciferase activity was then measured, normalized to the protein content and expressed as relative luciferase unit (RLuc)/μg protein.
(§3) 666-15 was described before. […]
(§4) HEK293T cells (ATCC) were routinely cultured in Dulbecco’s modified Eagle medium (DMEM, Life Technologies) supplemented with 10% fetal bovine serum (Hyclone) and non-essential amino acids (Life Technologies). […] The luciferase activity was measured by a tube luminometer (Berthold) using luciferase assay reagent (Promega). The protein concentration of the cell lysates in each well was determined using a Protein Assay Dye Reagent (Biorad). The luciferase activity in each well was normalized to the protein content and expressed as RLuc (relative luciferase unit)/μg protein.

[3] = target: T2, Gal4-c-Myb(241–325) (Homo sapiens, UniProt P10242); assay: Gal4-c-Myb transcription reporter assay in HEK293T cells; assay type: cell-based; conditions: pG5B reporter, increasing concentrations, 5–7 h
T2 construct: Gal4-c-Myb (241–325) was a generous gift of Dr. Anders Näär; expressed in transfected cells; host or cells: HEK293T
T2 sequence (P10242 with tags, fused parts or gaps limits assumed): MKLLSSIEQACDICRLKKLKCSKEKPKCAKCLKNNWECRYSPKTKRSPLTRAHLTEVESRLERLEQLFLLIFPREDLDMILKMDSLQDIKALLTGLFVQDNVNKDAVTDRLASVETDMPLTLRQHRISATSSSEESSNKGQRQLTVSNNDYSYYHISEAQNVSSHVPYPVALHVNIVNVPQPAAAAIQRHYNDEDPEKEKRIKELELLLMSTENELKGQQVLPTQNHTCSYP
Method: as §1, §2, §3, §4

[4] = In vivo pharmacokinetics, plasma concentration by LC-MS/MS; conditions: female, mouse, single dose 10 mg/kg IP, C57BL/6 mice, read-out: plasma concentration 24 h after drug administration
Method: Then the blood was collected at different time points and the plasma drug concentration was measured using tandem mass spectroscopy coupled with liquid chromatography (LC/MS-MS) methods.
Blood was collected at 0.083, 0.25, 0.5, 1, 2, 4, 8, 24 h post drug administration. Blood was collected from each mouse from the submandibular vein (3 time points/mouse). The blood was collected into the EDTA-K2 tubes, and centrifuged at 4,000× rpm for 10 min at 4 °C. The plasma was removed and stored at −80 °C until further analysis. The quantitative LC-MS/MS analyses were conducted using an Agilent 1200 HPLC system coupled to an API 4000 mass spectrometer equipped with an API electrospray ionization (ESI) source. The mobile phases used are a linear gradient of mobile phase A (10 mM ammonium acetate in H2O) and mobile phase B (10 mM ammonium acetate in 90% MeOH). The column used was Xtimate C18 2.1 × 30 mm (3 μm) with a flow rate of 0.6 mL/min. The mass spectrometer was operated in ESI positive ion mode and detection of the drugs was performed by multiple reaction monitoring (MRM).

## O=C(Nc1ccc(Cl)cc1)c1cc2ccccc2cc1OP(=O)(O)O [naphthol AS-E phosphate]
[1]
  effect on c-Myb's activity: inhibits c-Myb’s activity

## NCCCOc1cc2ccccc2cc1C(=O)NCCOc1cc2ccccc2cc1C(=O)Nc1ccc(Cl)cc1O [666-15]
[2]
  inhibition of Gal4-MLL-mediated transcription: no inhibition
[3]
  inhibition of Gal4-c-Myb-mediated transcription: no inhibition
[4]
  concentration at 24 h: 50 to 100 nM
